The record followed here is patent publication US20230066648A1, “METHOD FOR INDUCING TRANSDIFFERENTIATION OF SOMATIC CELLS INTO MAMMARY EPITHELIAL CELLS IN VITRO USING SMALL MOLECULE COMPOUND” (GUANGXI UNIVERSITY, priority 2019, published 2023).

The subject of the experiment is ear margin fibroblasts (GEFs) of goat. Put plainly: induction of transdifferentiation of fibroblasts into mammary epithelial cells with induction medium, cell morphology. The note with it: for transdifferentiation of fibroblasts into mammary epithelial cells with the inhibitor alone: 8 d, 10 μM SB431542, 5 μM SB525334, 1 μM LDN193189 induction medium alone. It counts as cell-based. How it is done:
1. The ear margin fibroblasts (GEFs) of goat were isolated and cultured by a tissue adherence method to provide cell materials for subsequent induction.
2. The fibroblasts were inoculated into a 60 mm cell culture dish at a density of 5×10^5, and after culturing for 8 h to 24 h in the high-glucose DMEM+10% FBS (volume percentage), the induction medium BFRTV was replaced, and then cultured at 37° C. for 8 d in a 5% CO2 incubator, where the medium was changed every two days.
3. When cultured to the 8th day, CiMECs can be subcultured and inoculated onto a plate pretreated with Matrix (a volume ratio of Matrix to gelatin was 1:50), and then cultured in a mammary epithelial cell medium, when the cell confluence reached about 90%, the cells were subcultured or frozen for subsequent detection.
Taking the ear margin fibroblasts of Guanzhong dairy goat as an experimental object, the concentration of five small molecule compounds currently used was adjusted, and the concentration of BFRTV was adjusted as a whole under the condition that the basal solution remained unchanged.

The structures appear in SMILES notation. “Also recorded” adds a separate entry of the source.

For the compound `c1ccc2c(-c3cnn4cc(-c5ccc(N6CCNCC6)cc5)cnc34)ccnc2c1` [LDN193189], the “transdifferentiation of fibroblasts into mammary epithelial cells with the inhibitor alone” value (shortened to “transdifferentiation … with the inhibitor alone”) was “the fibroblasts can be induced into mammary epithelial cells; also recorded: could still induce the transdifferentiation of fibroblasts into mammary epithelial cells”. In the case of `Cc1cccc(-c2[nH]ncc2-c2ccc3ncccc3n2)n1` [Repsox], under “R induction medium, no other small molecule”, the “induction of mammary epithelial cells with Repsox alone (R induction medium)” value is “mammary epithelial cells (CiMECs) similar to those by BFRTV induction medium were obtained”.

For `NC(=O)c1ccc(-c2nc(-c3ccc4c(c3)OCO4)c(-c3ccccn3)[nH]2)cc1` [SB431542], the “transdifferentiation … with the inhibitor alone” value is on record as “the fibroblasts can be induced into mammary epithelial cells; also recorded: could still induce the transdifferentiation of fibroblasts into mammary epithelial cells”.

For the compound `Cc1cccc(-c2[nH]c(C(C)(C)C)nc2-c2ccc3nccnc3c2)n1` [SB525334], the “transdifferentiation … with the inhibitor alone” value is reported as “the fibroblasts can be induced into mammary epithelial cells; also recorded: could still induce the transdifferentiation of fibroblasts into mammary epithelial cells”.
